The record followed here is PMC4551797 (PLoS ONE, 2015).

The target in data set [1] is T1, GPR120 (Homo sapiens, UniProt Q5NUL3).
T1 sequence (Q5NUL3 1-361): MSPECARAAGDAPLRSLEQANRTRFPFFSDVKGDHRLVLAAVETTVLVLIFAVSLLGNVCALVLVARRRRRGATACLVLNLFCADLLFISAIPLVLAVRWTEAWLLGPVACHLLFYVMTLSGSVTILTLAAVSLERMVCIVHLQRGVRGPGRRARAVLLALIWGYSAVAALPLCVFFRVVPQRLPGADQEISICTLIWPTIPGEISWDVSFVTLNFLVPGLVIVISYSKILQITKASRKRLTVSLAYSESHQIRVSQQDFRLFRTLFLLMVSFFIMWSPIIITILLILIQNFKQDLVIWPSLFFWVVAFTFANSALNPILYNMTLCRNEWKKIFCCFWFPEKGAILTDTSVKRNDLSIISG
Kind of data set: Selectivity: enteroendocrine GPCR GPR120.

The subject of data set [2] is C57BL/6 mice. In words: Oral glucose tolerance test with hormone measurement. Format: in vivo, mouse. To be noted: 30 mg/kg oral, glucose 3 g/kg. The protocol: For measurement of glucose only, overnight-fasted C57BL/6 mice in a normal light cycle were orally dosed with vehicle or compound, followed by an oral bolus of 3 g/kg glucose at 15 minutes post compound. At 0, 20, 40, 60, and 120 minutes post glucose dose, blood glucose was assessed via glucometers. Resulting raw data was used to generate AUCs. For measurement of hormones and glucose, overnight-fasted C57BL/6 mice acclimated for two weeks to a reverse light cycle were orally dosed with vehicle or compound, followed by an oral bolus of 3 g/kg glucose at 15 minutes post compound. At 0, 2, 5, 10, 20, 40, and 60 minutes post glucose dose, blood glucose was assessed via glucometers, followed immediately by collection of plasma for active GLP-1 (Mesoscale Discovery), insulin (Mesoscale Discovery), and total PYY. Glucose tolerance tests in diet-induced obese (DIO) C57BL/6 mice were performed in overnight-fasted animals dosed either acutely or after 2-week administration with vehicle or compound 18 at 60 mg/kg, followed 30 minutes post compound by an oral bolus of 2 g/kg glucose. At 0, 15, 30, 60, and 120 minutes post glucose dose, blood glucose was assessed via glucometers. Resulting raw data was used to generate AUCs.
To evaluate glucose, insulin, GLP-1, and PYY levels throughout the OGTT, each time-point consisted of a separate group of mice that were used to record glucose by use of a glucometer followed by terminal bleeds for measurement of active GLP-1, total PYY, and insulin. AUCs were then calculated for the entire hour of the OGTT. […] Changes in insulin AUCs were not increased with treatment of either sitagliptin or compound 18, likely due to the lower glucose levels reducing the drive for glucose-stimulated insulin secretion (Fig 5D).
Fig 5 Compound 18 increases GLP-1 and PYY and lowers the glucose and insulin excursions as compared to sitagliptin in an OGTT in C57BL/6 mice. […] Plasma was analyzed for active GLP-1 (A), total PYY (B), and insulin (D), while blood glucose was measured by glucometers (C).

Data set [3] concerns the target T2, mouse TGR5 (Mus musculus, UniProt Q80SS6).
T2 sequence (Q80SS6 1-329): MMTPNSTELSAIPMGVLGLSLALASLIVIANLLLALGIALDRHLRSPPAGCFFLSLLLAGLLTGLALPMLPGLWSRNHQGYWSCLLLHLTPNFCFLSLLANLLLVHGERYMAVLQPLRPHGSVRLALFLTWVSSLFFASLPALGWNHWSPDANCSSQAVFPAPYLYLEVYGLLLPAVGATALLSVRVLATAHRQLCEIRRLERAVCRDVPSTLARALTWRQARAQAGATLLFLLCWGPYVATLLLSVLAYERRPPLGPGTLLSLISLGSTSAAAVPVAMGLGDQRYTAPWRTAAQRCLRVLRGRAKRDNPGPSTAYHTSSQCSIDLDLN
In words: cAMP production in HEK-293 cells stably transfected with the mouse TGR5 gene (HTRF cAMP assay). The data set is classed as cell-based. On the set-up: expressed in transfected cells. The protocol:
HEK-293 cells were obtained from ATCC and a clonal HEK-293 line overexpressing mouse TGR5 was prepared. Both were maintained in Dulbecco’s modified Eagle’s medium (DMEM) containing 10% fetal bovine serum (FBS) and penicillin /streptomycin. Mouse STC-1 cells were obtained from ATCC under agreement with the Cold Spring Harbor Laboratories and maintained in DMEM containing 10% FBS and penicillin /streptomycin. NCI-H716 cells were obtained from ATCC and were maintained in RPMI-1640 with 10% FBS. NCI-H716 cells were cultured in 96 well plate coated with Matrigel (BD). After 72 hours, cAMP production stimulated with TGR5 agonists was measured using HTRF cAMP assay kit (CISBIO). The level of cAMP in suspensions of STC-1 cells stimulated with increasing concentrations of TGR5 agonists was also determined. […] The production of GLP-1 was determined using a GLP-1 Assay (7–36) amide kit (Mesoscale Discovery) following the manufacturer’s instructions. […]
Compound 18 is a novel small molecule agonist of TGR5 developed by Eli Lilly and Company (MW = 508.62, Fig 2A). […] In order to determine potency of compound 18 for the mouse and human TGR5 receptor in cells with endogenous levels of receptor, we measured compound 18-stimulated cAMP production and GLP-1 secretion in both mouse (STC-1) and human (NCI-H716) enteroendocrine cell lines, that we have shown to express TGR5 natively (Fig 1). […]
(Cyclic AMP is a second messenger, typically raised through Gs and lowered through Gi signalling.)

For data set [4], the system named is wild-type mice. Kind of data set: Three-day study on GLP-1, PYY and bile weight in wild-type littermates. Particulars: 100 mg/kg oral BID 3 days, 30 min after last dose.
Method: C57BL/6 mice, Tgr5 KO mice, or their wild-type littermate controls were orally dosed with vehicle or compounds twice per day for 3 days, with overnight fasting performed on the evening of day 2. On the morning of day 3, animals were dosed orally with compounds and then euthanized by CO2 asphyxiation at 30 minutes after the fifth dose. Plasma was collected for analysis of GLP-1 (X-36) amide as mentioned above, followed immediately by incision into the abdominal cavity to remove and weigh bile from the gallbladder.

Structures are written as SMILES. Where two headings read alike, the source gives them in different places. Bounds are passed on as bounds.

The compound `CC(=O)N1CCC(C(C)N(C(=O)COc2cccc3sc4nc(C)cn4c23)c2ccc(F)cc2)CC1` (stereo not shown) [compound 18] had an EC50 in data set [1] of over 125000 nM. Moreover, in data set [2] (1 hour), the “AUC of active GLP-1 during OGTT” value is “superior AUC for active GLP-1 above both vehicle and sitagliptin”; the “AUC of total PYY during OGTT” value was “higher increase in the AUC of total PYY above both vehicle and sitagliptin”; the “insulin AUC during OGTT” value is on record as “not increased”. Also, the “glucose excursion during OGTT” value in data set [2] (versus sitagliptin 10 mg/kg) is reported as “levels indistinguishable from those of sitagliptin-treated animals”. In addition, the EC50 in data set [3] (HEK-293 cells over-expressing mouse TGR5, read-out: EC50, cAMP production) was determined as 24.7 nM. For the same compound, in data set [3] (cAMP, unit inferred, x-axis in nM, read-out: EC50 HEK-293-mTGR5 (Fig 2B inset)), the EC50 was determined as 24.7 nM. Moreover, in data set [4], the GLP-1 entry is “significant increase”, the PYY entry is given as “significant increase” and the bile weight entry was “significant increase”.

By EC50 is commonly meant the concentration needed to bring the measured effect to its halfway point.
